Experimental data published in ChEMBL document CHEMBL5303766, “Data for DCP probe FHT-2344” (2022).

Tests used:
[1] = biological target: Calcium/calmodulin-dependent protein kinase type II subunit beta (Homo sapiens) (UniProt Q13554); assay: CAMK2B SGC Tm panel (DSF); details: for ΔTm: Compound concentration 10.0 uM
[2] = biological target: Beta-2 adrenergic receptor (Homo sapiens) (UniProt P07550); details: Compound concentration 10.0 uM
[3] = biological target: Casein kinase II subunit alpha' (Homo sapiens) (UniProt P19784); assay: CSNK2A2A SGC Tm panel (DSF)
[4] = biological target: T1, Cytoplasmic tyrosine-protein kinase BMX (Homo sapiens) (UniProt P51813); assay: BMX SGC Tm panel (DSF); details: for ΔTm: Compound concentration 10.0 uM
T1 sequence (whole entry): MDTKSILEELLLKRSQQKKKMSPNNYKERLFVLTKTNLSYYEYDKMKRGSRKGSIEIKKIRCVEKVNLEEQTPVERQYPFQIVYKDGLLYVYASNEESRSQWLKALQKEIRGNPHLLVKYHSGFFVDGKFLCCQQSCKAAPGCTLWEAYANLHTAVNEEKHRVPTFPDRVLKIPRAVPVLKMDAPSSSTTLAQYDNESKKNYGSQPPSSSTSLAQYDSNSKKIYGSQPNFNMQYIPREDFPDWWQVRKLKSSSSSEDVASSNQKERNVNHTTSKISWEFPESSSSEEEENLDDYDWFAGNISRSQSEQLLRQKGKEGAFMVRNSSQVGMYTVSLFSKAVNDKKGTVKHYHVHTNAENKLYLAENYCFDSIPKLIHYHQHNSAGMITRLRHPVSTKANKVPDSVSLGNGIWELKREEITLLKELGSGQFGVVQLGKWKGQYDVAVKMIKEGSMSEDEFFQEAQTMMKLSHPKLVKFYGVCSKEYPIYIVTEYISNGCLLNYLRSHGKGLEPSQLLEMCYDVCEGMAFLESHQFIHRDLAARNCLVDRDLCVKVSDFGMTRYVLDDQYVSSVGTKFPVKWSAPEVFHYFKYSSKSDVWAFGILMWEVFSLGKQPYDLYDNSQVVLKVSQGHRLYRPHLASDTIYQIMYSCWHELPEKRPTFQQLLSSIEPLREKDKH

[5] = biological target: Beta-3 adrenergic receptor (Homo sapiens) (UniProt P13945); details: Compound concentration 10.0 uM
[6] = biological target: Serine/threonine-protein kinase Nek7 (Homo sapiens) (UniProt Q8TDX7); assay: NEK7 SGC Tm panel (DSF); details: for ΔTm: Compound concentration 10.0 uM
Rattus norvegicus = organism: Rattus norvegicus; details: Compound concentration 10.0 uM
[7] = biological target: Histamine H4 receptor (Homo sapiens) (UniProt Q9H3N8); details: Compound concentration 10.0 uM
[8] = biological target: Chromodomain-helicase-DNA-binding protein 4 (Homo sapiens, UniProt Q14839); assay: Measurement of the ATPase catalytic activity using the ADP-Glo detection ([…]); assay type: functional
[9] = biological target: Dual specificity tyrosine-phosphorylation-regulated kinase 1A (Homo sapiens) (UniProt Q13627); assay: DYRK1A SGC Tm panel (DSF); details: for ΔTm: Compound concentration 10.0 uM
[10] = biological target: Sodium-dependent noradrenaline transporter (Homo sapiens, UniProt P23975); assay: GPCRScan assay: inhibition of NET; set-up: radioligand conc. used [nm] 1.3 – 5.0, parental cells stable HEK
[11] = GPCRScan assay: inhibition of GABA/PBR; set-up: species or system Rattus norvegicus; radioligand conc. used [nm] 0.3 – 2.0, parental cells brain tissue
[12] = biological target: 5-hydroxytryptamine receptor 2B (Homo sapiens, UniProt P41595); assay: GPCRScan assay: inhibition of 5-HT2B; set-up: radioligand conc. used [nm] 1.0 – 2.0, parental cells stable HEK
[13] = biological target: Muscarinic acetylcholine receptor M1 (Homo sapiens) (UniProt P11229); details: Compound concentration 10.0 uM
[14] = biological target: SWI/SNF-related matrix-associated actin-dependent regulator of chromatin subfamily A member 4 (Homo sapiens, UniProt P51532); assay: Measurement of the ATPase catalytic activity using the ADP-Glo detection (SMARCA4); assay type: functional
[15] = biological target: Casein kinase II subunit alpha' (Homo sapiens) (UniProt P19784); assay: CSNK2A2 SGC Tm panel (DSF)
[16] = biological target: 5-hydroxytryptamine receptor 1E (Homo sapiens) (UniProt P28566); details: Compound concentration 10.0 uM
[17] = biological target: Sigma non-opioid intracellular receptor 1 (Homo sapiens, UniProt Q99720); assay: GPCRScan assay: inhibition of Sigma 1; set-up: radioligand conc. used [nm] 4.0 – 5.0, parental cells HEKT
[18] = biological target: GABA-A receptor; anion channel (Rattus norvegicus) (UniProt O09028+P15431+P18506+P18508+P19969+P20236+P23574+P23576+P28471+P28473+P30191+P62813+P63079+P63138+Q91ZM7+Q9ES14); details: Compound concentration 10.0 uM

Chain of Serine/threonine-protein kinase Nek7 (Homo sapiens) (Q8TDX7 whole entry, looked up): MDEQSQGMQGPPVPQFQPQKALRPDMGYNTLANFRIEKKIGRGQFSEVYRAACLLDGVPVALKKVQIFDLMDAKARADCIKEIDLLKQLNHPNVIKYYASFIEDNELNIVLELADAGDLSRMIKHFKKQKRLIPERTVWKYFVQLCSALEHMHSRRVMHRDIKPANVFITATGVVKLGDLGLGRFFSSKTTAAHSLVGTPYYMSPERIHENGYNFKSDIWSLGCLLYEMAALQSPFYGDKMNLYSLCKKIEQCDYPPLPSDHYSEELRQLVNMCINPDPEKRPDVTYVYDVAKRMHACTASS
Chain of Casein kinase II subunit alpha' (Homo sapiens) (P19784 whole entry, looked up): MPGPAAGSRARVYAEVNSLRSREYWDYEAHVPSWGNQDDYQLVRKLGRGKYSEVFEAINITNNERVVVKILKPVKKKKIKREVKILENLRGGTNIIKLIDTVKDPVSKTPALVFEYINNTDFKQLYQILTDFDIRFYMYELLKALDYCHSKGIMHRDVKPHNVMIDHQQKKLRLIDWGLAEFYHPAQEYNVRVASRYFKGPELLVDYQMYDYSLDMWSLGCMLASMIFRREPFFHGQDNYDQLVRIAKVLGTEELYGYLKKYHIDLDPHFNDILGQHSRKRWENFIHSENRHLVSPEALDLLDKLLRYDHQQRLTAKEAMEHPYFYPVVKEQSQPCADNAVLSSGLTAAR
Chain of Calcium/calmodulin-dependent protein kinase type II subunit beta (Homo sapiens) (Q13554 whole entry): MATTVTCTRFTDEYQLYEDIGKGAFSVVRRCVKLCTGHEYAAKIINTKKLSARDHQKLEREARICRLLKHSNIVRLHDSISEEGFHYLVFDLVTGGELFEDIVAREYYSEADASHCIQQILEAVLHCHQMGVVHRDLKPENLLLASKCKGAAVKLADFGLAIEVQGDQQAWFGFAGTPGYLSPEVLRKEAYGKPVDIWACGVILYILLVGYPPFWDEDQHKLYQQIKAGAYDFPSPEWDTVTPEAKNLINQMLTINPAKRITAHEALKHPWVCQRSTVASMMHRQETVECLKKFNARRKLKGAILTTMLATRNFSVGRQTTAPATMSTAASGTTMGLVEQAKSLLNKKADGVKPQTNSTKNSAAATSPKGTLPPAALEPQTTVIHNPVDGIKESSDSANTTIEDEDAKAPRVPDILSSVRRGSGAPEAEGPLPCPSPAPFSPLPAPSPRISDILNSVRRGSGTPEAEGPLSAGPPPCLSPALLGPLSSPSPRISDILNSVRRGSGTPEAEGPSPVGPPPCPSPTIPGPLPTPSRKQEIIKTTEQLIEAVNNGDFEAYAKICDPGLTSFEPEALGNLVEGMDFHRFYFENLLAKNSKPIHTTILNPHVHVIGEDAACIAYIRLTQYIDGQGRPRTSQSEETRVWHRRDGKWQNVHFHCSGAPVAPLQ
Chain of 5-hydroxytryptamine receptor 2B (P41595 whole entry): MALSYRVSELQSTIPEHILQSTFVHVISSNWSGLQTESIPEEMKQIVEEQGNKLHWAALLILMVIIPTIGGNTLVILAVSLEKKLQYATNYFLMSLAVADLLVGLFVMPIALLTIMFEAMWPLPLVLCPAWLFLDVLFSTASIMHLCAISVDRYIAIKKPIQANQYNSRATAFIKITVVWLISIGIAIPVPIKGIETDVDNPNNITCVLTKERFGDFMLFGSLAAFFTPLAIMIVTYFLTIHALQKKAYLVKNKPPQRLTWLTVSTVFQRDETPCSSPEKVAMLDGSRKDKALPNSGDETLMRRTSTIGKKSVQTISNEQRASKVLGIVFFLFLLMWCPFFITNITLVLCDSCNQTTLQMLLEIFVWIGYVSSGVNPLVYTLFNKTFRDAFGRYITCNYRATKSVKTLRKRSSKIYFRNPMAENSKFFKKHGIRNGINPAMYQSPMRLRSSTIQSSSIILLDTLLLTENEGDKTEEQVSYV
Chain of Sigma non-opioid intracellular receptor 1 (Q99720 whole entry): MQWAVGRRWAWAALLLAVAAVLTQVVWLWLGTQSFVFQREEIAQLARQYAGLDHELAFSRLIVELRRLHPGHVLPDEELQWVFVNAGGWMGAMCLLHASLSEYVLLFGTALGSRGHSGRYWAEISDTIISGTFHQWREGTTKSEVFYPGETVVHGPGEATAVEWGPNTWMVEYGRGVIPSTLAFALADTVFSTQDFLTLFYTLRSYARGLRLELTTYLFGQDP
Chain of Beta-2 adrenergic receptor (Homo sapiens) (P07550 whole entry, looked up): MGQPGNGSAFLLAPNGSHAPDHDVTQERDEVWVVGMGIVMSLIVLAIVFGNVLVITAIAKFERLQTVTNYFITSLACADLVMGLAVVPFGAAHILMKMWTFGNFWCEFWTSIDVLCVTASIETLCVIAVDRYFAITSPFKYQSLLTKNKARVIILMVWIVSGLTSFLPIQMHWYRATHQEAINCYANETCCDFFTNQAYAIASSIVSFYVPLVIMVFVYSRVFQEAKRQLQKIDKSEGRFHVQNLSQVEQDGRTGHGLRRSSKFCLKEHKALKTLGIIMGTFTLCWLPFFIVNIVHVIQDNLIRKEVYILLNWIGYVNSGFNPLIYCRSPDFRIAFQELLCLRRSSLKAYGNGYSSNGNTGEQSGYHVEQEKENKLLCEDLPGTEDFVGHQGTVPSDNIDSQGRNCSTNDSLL
Chain of 5-hydroxytryptamine receptor 1E (Homo sapiens) (P28566 whole entry): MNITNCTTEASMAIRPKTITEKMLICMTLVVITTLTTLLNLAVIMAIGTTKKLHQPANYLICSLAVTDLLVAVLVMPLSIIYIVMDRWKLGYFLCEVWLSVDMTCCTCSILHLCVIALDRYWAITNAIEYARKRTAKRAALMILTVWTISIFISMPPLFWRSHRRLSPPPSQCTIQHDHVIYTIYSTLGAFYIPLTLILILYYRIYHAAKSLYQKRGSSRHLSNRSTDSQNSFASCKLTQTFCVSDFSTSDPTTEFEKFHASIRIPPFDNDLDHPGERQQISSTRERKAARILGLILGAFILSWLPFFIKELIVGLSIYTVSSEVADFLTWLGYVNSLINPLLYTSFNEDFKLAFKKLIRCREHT
Chain of Beta-3 adrenergic receptor (Homo sapiens) (P13945 whole entry, looked up): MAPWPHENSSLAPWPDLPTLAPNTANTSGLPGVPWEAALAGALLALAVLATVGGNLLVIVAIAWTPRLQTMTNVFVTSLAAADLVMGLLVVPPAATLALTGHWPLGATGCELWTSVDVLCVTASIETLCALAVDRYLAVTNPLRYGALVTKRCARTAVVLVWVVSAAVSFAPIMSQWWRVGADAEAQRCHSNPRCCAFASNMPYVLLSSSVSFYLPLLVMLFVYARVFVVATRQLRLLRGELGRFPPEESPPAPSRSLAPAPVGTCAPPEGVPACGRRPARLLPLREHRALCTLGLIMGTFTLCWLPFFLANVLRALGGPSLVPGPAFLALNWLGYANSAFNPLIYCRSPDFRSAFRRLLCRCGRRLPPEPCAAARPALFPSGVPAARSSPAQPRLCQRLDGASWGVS
Chain of Sodium-dependent noradrenaline transporter (P23975 whole entry): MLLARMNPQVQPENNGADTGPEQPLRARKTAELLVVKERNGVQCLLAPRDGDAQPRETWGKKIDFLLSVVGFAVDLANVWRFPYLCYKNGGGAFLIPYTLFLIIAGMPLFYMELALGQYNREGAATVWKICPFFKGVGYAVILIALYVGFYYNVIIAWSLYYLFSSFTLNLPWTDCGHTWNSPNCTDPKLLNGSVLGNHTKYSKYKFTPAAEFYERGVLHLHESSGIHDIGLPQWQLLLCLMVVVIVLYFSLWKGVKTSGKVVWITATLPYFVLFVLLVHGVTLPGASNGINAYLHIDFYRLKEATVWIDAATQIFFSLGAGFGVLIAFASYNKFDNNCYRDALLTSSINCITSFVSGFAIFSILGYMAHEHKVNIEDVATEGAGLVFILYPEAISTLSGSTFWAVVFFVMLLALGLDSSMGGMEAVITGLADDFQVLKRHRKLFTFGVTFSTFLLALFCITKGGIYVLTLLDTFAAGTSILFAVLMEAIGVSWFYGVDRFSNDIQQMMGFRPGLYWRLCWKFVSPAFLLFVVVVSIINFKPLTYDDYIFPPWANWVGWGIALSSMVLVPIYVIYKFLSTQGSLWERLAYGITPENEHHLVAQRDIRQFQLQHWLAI
Chain of Histamine H4 receptor (Homo sapiens) (Q9H3N8 whole entry): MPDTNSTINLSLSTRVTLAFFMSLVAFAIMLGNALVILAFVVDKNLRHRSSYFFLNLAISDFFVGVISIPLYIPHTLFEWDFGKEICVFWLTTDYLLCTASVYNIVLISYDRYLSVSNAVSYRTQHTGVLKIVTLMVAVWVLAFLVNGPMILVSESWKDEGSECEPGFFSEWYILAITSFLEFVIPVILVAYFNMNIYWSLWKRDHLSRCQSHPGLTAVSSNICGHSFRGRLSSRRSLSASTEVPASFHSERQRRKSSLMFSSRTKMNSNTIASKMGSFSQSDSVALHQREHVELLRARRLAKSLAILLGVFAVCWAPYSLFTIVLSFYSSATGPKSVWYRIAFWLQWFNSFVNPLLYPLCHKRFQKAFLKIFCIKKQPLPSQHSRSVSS
Chain of Muscarinic acetylcholine receptor M1 (Homo sapiens) (P11229 whole entry): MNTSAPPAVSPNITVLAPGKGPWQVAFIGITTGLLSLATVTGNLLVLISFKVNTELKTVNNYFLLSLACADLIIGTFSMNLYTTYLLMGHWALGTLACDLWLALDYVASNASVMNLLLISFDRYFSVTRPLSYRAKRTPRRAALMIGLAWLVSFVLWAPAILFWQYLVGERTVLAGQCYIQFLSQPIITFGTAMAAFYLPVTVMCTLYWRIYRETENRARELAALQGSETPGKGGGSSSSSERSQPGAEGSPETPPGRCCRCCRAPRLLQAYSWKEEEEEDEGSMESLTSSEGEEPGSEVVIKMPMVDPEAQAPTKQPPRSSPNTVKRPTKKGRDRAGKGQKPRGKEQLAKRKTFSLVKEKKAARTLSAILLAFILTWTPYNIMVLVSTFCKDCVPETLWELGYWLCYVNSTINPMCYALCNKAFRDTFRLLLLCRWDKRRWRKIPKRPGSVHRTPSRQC

Compound | delta Tm Staurosporine positive control [1] | ΔTm [1] | inhibition [2] [%] | delta Tm Staurosporine positive control [4] | ΔTm [4] | delta Tm Staurosporine positive control [6] | ΔTm [6] | inhibition (Rattus norvegicus) [%] | delta Tm Staurosporine positive control [9] | ΔTm [9] | other results
COC[C@H](NC(=O)c1ccn(S(C)(=O)=O)c1)C(=O)Nc1nc(-c2cccc(-c3ccn(C)n3)c2)cs1 | 14.5 | 0.588 | 1.42 | 7.18 | 0.191 | 1.29 | 0.0604 | 47.5 | 9.3 | -0.76 | delta Tm Staurosporine positive control [3]: 4.26; ΔTm ([3]; Compound concentration 10.0 uM): 0.0547; inhibition [5]: -3.49%; inhibition [7]: -0.33%; IC50 [8]: > 200000 nM (not active)
C[C@H](NC(=O)c1cn(C2(C#N)CC2)cn1)C(=O)Nc1nc(-c2cccc(-c3ccn(C)n3)c2)cs1 | 14.5 | 0.509 | -5.95 | 7.18 | 0.254 | 1.29 | 0.0219 | 64.6 | 9.3 | -0.834 | Ki [10]: 8270 nM; Ki [11]: 1580 nM; pKi [11]: 5.81; Ki ([12]; read-out: Ki): 508 nM; Ki ([12]; read-out: pKi (converted)): 490 nM; inhibition [13]: 23.2%; IC50 [14]: 3990 nM (not active); delta Tm Staurosporine positive control [15]: 4.26; ΔTm ([15]; Compound concentration 10.0 uM): -0.217; inhibition [16]: -0.87%; Ki ([17]; read-out: Ki): 417 nM; Ki ([17]; read-out: pKi (converted)): 407 nM; inhibition [18]: 49.4%
